# Source: publication PMC11625344, “A peptide derived from the amino terminus of leptin improves glucose metabolism and energy homeostasis in myotubes and db/db mice” (The Journal of Biological Chemistry, 2024)
# Where no end group is shown, it is not given here.
# Key:
# L6 cells = conditions: peptide up to 100 μM, 2 h; MTT, absorbance 540 nm
# Experimental: Biological activity and toxicity of the purified peptides were studied on rat skeletal muscle cell line L6. L6 cell line was seeded, grown, and differentiated according to the protocols described earlier ([34]). In brief, cells were grown in low glucose-DMEM and differentiated using DMEM containing 2% fetal bovine serum supplemented 1% Antibiotic-Antimycotic ([38], [39]).
# BALB/c mice = experiment: In vivo acute toxicity and survival study; set-up: species or system mouse
# Experimental: In vivo toxicity and survival study with the peptides were performed in BALB/c mice. Mice were divided into five groups, each group with five number of mice. One group was kept as control group and injected only with vehicle (Water). […] Dosing was done through intraperitoneal route and only a single dosing was performed. The mice were kept under observation for a week after peptide injection. After 1 week of observation, survival of mice in all groups was recorded. At seventh day, blood samples were collected from each mice in all the groups, and the serum was isolated to estimate aspartate transaminase and alanine transaminase level ([43]).
# AMPK protein = experiment: AMPK activation (Thr-172 phosphorylation), Western blot; assay type: cell-based, rat; conditions: peptides 5 μM 3 h; metformin 50 μM 6 h; normalised to total AMPK
# Excerpt: (§1) In order to examine the peptide-induced activation of a protein, related to a signaling event, we have assessed its expression in the peptide-treated L6 myotubes with respect to the myotubes, not treated with the peptide and myotubes-treated with a positive control. For this purpose, we have performed Western blotting experiments by usual procedure after resolving the proteins of the whole cell lysates of L6 myotubes, treated at different experimental conditions by SDS-PAGE. Briefly describing the procedure, whole cell lysate was prepared by lysing the cells in radioimmunoprecipitation assay lysis buffer and equal amount of lysate was resolved on 10% SDS-PAGE. Resolved proteins were transferred to nitrocellulose membrane and the membrane was blocked with 5% skimmed milk solution. Incubated with specific primary (ratio of 1: 2500 of antibody to phosphate-buffered saline with Tween 20 (PBST) used for antibodies purchased from Sigma-Aldrich and Millipore, 1:1000 for antibodies purchased from Santa Cruz) and secondary antibodies (antibody concentration of 1:2000 in PBST), and the blots were developed using ChemiDoc ([34]).
# [1] = test system: acetyl-CoA carboxylase-2 (ACC2); experiment: ACC2 serine-80 phosphorylation, Western blot; assay type: cell-based, rat
# Excerpt: as §1
# db/db mice = experiment: In vivo antidiabetic activity, OGTT and fasting blood glucose; set-up: species or system mouse; conditions: metformin 50 mg/kg i.p. on alternate days for 30 days, n = 5
# Experimental: In vivo antidiabetic activity of the peptide was studied in diabetic animal model db/db mice. Male db/db mice with hyperglycemia were identified by checking their blood glucose level and selected for the study. Mice were divided into four groups, and the number of animals in each group was five. Blood glucose levels were measured using Accu-Chek glucometer and blood glucose measurement strips. The study was continued for 30 days. At the start of the study, fasting blood glucose in each animal was recorded, and OGTT was performed in each animal of all groups. To perform OGTT, the mice were fasted for 6 h, and then 30 min before oral glucose loading, the fasting blood glucose level in each mouse was recorded. After fasting of 6 h 3 g/kg body weight glucose was loaded orally and blood glucose at 0 minute was recorded simultaneously. Blood glucose was measured after every 30 min at 30, 60, 90, and 120 min after oral glucose loading. Time of oral glucose loading was considered as 0 min. After OGTT on day-1 peptide dosing was started. […] Thus 15 doses of the peptide/drug were administered in each db/db mice over a period of 30 days. On final day, OGTT was performed again with the same procedure described above. Blood sample was collected from each group for serum analysis. Mice were sacrificed by CO2 induced hypoxia. […]
# adiponectin = experiment: Serum adiponectin ELISA; assay type: in vivo, mouse; conditions: metformin 50 mg/kg, 30 days; vs diabetic db/db control group
# Experimental: (§2) In vivo antidiabetic activity of the peptide was studied in diabetic animal model db/db mice. Male db/db mice with hyperglycemia were identified by checking their blood glucose level and selected for the study. Mice were divided into four groups, and the number of animals in each group was five. Blood glucose levels were measured using Accu-Chek glucometer and blood glucose measurement strips. The study was continued for 30 days. At the start of the study, fasting blood glucose in each animal was recorded, and OGTT was performed in each animal of all groups. To perform OGTT, the mice were fasted for 6 h, and then 30 min before oral glucose loading, the fasting blood glucose level in each mouse was recorded. After fasting of 6 h 3 g/kg body weight glucose was loaded orally and blood glucose at 0 minute was recorded simultaneously. Blood glucose was measured after every 30 min at 30, 60, 90, and 120 min after oral glucose loading. Time of oral glucose loading was considered as 0 min. After OGTT on day-1 peptide dosing was started. Dosing of M10 peptide at 10 mg/kg and 20 mg/kg body weight was started from day one on alternate day basis through intraperitoneal route for 30 days. Thus 15 doses of the peptide/drug were administered in each db/db mice over a period of 30 days. On final day, OGTT was performed again with the same procedure described above. […]
# TNFα = experiment: Serum TNFα ELISA; assay type: in vivo, mouse; conditions: metformin-treated db/db group (50 mg/kg), 30 days
# Experimental: as §2
# IL-6 = experiment: Serum IL-6 ELISA; assay type: in vivo, mouse; conditions: metformin-treated db/db group (50 mg/kg), 30 days
# Experimental: as §2
# L6 myotubes [2] = experiment: Mitochondrial biogenesis assay using MitoTracker red; assay type: cell-based, rat; conditions: 24 h incubation; rosiglitazone 10 μM; confocal microscopy, ImageJ
# Experimental: Mitochondrial biogenesis was studied in L6 cells using mitochondrial stain MitoTracker CMXRos. The cells L6 was seeded in 4-chambered slide with a density of 20,000 cells per chamber. The cells were differentiated to myotubes following the protocol mentioned above. […] Following treatment with test peptides the cells were stained with MitoTracker red and Hoechst. The cells were then washed with PBS to remove the residual stains. Cells were then fixed with 4% paraformaldehyde and the slides were mounted using DPX. The slides were then imaged using confocal microscope. The excitation and emission wavelengths were fixed at 578 and 599 nm for red and 357 and […] for blue emission, respectively ([41]).
# L6 myotubes [3] = experiment: ATP extraction and determination; assay type: cell-based, rat; conditions: 24 h; rosiglitazone 10 μM; vehicle-treated control 4 μM; ATP determination kit
# Experimental: Whole amount of ATP was extracted from L6-myotubes treated with leptin-1 and leptin-2 peptides and Rosiglitazone, according to the protocol mentioned in the literature ([42]). Briefly, the cells were harvested and pelleted by centrifugation. The harvested cells were incubated with 1% trichloroacetic acid and 4 mM EDTA solution for 10 min on ice for ATP extraction. The samples were centrifuged at 12,000 rpm for 10 min to pellet down the debris, and the supernatant was used for ATP determination. ATP determination was performed according to the protocol mentioned in the ATP determination kit’s manual from Thermo Fisher Scientific. Interference of trichloroacetic acid on ATP determination was avoided by 10× dilution of the sample in water.
# L6 myotubes [4] = experiment: Glucose uptake assay with 2NBDG; assay type: cell-based, rat
# Experimental: As described earlier ([34]), glucose uptake assay was performed in L6 myotubes using 2NBDG. Briefly describing, L6 cells were seeded and differentiated to myotubes as described above. Differentiated myotubes were serum fasted for 6 h with serum free DMEM and the cells were incubated with desired concentration of leptin-1 and leptin-2 peptides for specified period. […] Following peptide treatment, the cells were incubated with 200 μM of 2NBDG for 10 min and the residual 2NBDG was removed and washed with PBS. Cells were trypsinized and collected in fluorescence activated cell sorting tube for fluorescence measurement. To estimate the uptake of fluorescent glucose analog, fluorescence of the cells from different samples was measured using fluorescence activated cell sorting Aria instrument.
# GLUT4 [5] = experiment: GLUT4 translocation to plasma membrane, Western blot of cytosolic and membrane fractions; assay type: cell-based, rat; conditions: leptin-1 5 μM 3 h; insulin 100 nM 20 min; vs vehicle-treated control
# Experimental: Separation of cytosolic and membrane fraction was performed according to the protocol mentioned earlier ([34]). In brief, the harvested cells were resuspended in membrane fractionation buffer ([40]) and kept for 1 h with regular tapping. Cellular debris were removed by centrifugation at 800g for 10 min, and the supernatant was collected in fresh micro centrifuge tube, which contains the cytosolic and crude membrane fractions. Crude membrane and cytosolic fraction were separated by centrifugation at 12000 rpm for 10 min at 4 °C. The crude membrane pellet was resuspended in radioimmunoprecipitation assay lysis buffer to elute out membrane proteins and then centrifuged at 15000 rpm for 15 min. Whole process was performed on ice. Both the samples were than resolved on 10% SDS-PAGE ([38], [40]).
# In order to examine the peptide-induced activation of a protein, related to a signaling event, we have assessed its expression in the peptide-treated L6 myotubes with respect to the myotubes, not treated with the peptide and myotubes-treated with a positive control. For this purpose, we have performed Western blotting experiments by usual procedure after resolving the proteins of the whole cell lysates of L6 myotubes, treated at different experimental conditions by SDS-PAGE. […]
# GLUT4 [6] = experiment: GLUT4 translocation to plasma membrane, immunocytochemistry; assay type: cell-based, rat; conditions: leptin-1 5 μM 3 h; insulin 100 nM 20 min; confocal imaging
# Experimental: ICC analysis for GLUT4 translocation to PM was studied in L6 myotubes. L6 cells were grown and differentiated in 4-chambered slide following the protocol described above. The differentiated cells were treated with test peptide and positive control insulin for specified time period. Cells were fixed in formalin and perforated using 0.4% Triton X-100. The cells were then immunostained using anti-GLUT4 primary antibody (1:100 dilution) and incubated overnight at 4 °C. Cells were washed three times with PBST and then incubated with Alexa flour-488 tagged secondary antibody and incubated for 2 h. After 2 h, cells were again washed 5 times with PBST, and nuclear staining was performed by incubating the cells for 30 min with Hoechst nuclear stain. The cells were then again washed 3 times and the slide was mounted using DPX mounting media. Imaging of the slides was done using confocal microscope, blue range and green ranges filters were used ([34]).
# GLUT4 [7] = experiment: GLUT4 expression, Western blot; assay type: cell-based, rat; conditions: peptides 5 μM 3 h; insulin 100 nM 30 min; vs vehicle; beta-actin loading control
# Excerpt: as §1
# IRS1 = IRS1 expression, Western blot; assay type: cell-based, rat; conditions: peptides 5 μM 3 h; insulin 100 nM 30 min; vs vehicle
# Excerpt: as §1
# AKT = AKT activation (p-AKT), Western blot; assay type: cell-based, rat; conditions: leptin-1 5 μM 3 h; insulin 100 nM 30 min; vs vehicle; normalised to total AKT
# Excerpt: as §1
# [8] = 10, 20, 40 and 80 mg/kg, day 7, comparable to vehicle-treated control
molecule,measurement,setting,value
KQKVTGLDFIPGLHPIL-NH2 [leptin-1],viability of L6 cells,L6 cells,~95%
same,survival,"BALB/c mice; 10, 20, 40 and 80 mg/kg body weight, intraperitoneal, 7 days",100%
same,serum alanine transaminase level,BALB/c mice; [8],normal
same,serum aspartate transaminase level,BALB/c mice; [8],normal
same,body weight,"BALB/c mice; all peptide-treated groups, until end of 7 days",stable body weights
CN(C)C(=N)N=C(N)N [metformin],AMPK Thr-172 phosphorylation,AMPK protein,2 fold
same,phosphorylation of S80 of ACC2 after dorsomorphin pretreatment,"[1]; dorsomorphin 1 h, then leptin-1 5 μM 3 h or metformin",prevented
same,phosphorylation of S80 residue of ACC2,"[1]; peptides 5 μM 3 h, metformin positive control",significantly increased S80 residue phosphorylation
same,fasting blood glucose (FBG),db/db mice,reduced FBG
same,glucose tolerance (OGTT),db/db mice; oral glucose 3 g/kg,improved glucose tolerance
same,increase in serum adiponectin production,adiponectin,2.6 fold
same,inhibition of TNFα production,TNFα,44%
same,inhibition of IL-6 production,IL-6,52%
CN(CCOc1ccc(CC2SC(=O)NC2=O)cc1)c1ccccn1 (centres unmarked) [rosiglitazone],mitochondrial biogenesis (Mitotracker red fluorescence),L6 myotubes [2],significantly increased mitochondrial biogenesis
same,ATP production,L6 myotubes [3],13 µM
"insulin: human insulin (Sigma-Aldrich), positive control at 100 nM","glucose uptake, positive control","L6 myotubes [4]; insulin 100 nM, Fig. 2D",significantly increased glucose uptake
same,glucose uptake without inhibitor,"L6 myotubes [4]; leptin-1 5 μM 3 h, insulin 100 nM 30 min, Fig. 5C",2.4 fold
same,GLUT4 translocation to PM,GLUT4 [5],4 fold
same,"GLUT4 translocation to PM (ICC, green fluorescence on PM)",GLUT4 [6],appreciable increase in green fluorescence
same,GLUT4 expression,GLUT4 [7],1.6 fold
same,IRS1 activation and expression,IRS1,1.6 fold
same,AKT activation (p-AKT),AKT,4.2 fold
VVALSRLQGSLQDMLW-NH2 [leptin-2],viability of L6 cells,L6 cells,~95%
